From publication PMC6501643, “Crystal structure of human RIOK2 bound to a specific inhibitor” (Open Biology, 2019)

Biological target: T1, RIO kinase 2 (RIOK2) (Homo sapiens, UniProt Q9BVS4)
T1 construct: residues 1–329
Experiment: co-crystal structure ([…] Å) and ITC
Format: binding

T1 sequence (Q9BVS4 1-329): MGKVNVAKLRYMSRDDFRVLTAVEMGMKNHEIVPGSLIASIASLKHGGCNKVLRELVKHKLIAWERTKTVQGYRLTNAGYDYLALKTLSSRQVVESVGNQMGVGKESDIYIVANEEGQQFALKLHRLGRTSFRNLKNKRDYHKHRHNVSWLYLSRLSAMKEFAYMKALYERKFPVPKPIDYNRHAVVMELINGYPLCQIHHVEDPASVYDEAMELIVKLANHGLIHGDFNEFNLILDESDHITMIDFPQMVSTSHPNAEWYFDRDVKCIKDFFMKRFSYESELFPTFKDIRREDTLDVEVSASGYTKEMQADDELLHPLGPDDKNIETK

O=C(Cc1ccc2ccccc2c1)Nc1ccccn1 [compound 9]
Kd: 393 nM
